In patent US11554171B2, “Compounds and methods for the targeted degradation of bromodomain-containing proteins” (Arvinas Operations, Inc., priority 2015, dated 2023):

Tested on: c-myc in 22RV-1 cells
Assay: Human c-myc ELISA assay
Type: cell-based
Conditions: Homo sapiens; for Emax: 22Rv1, 18 h, read-out: Degradation of BRD4: Maximum inhibition (%) c-Myc ELISA in 22RV1 cells; for DC50: 22Rv1, read-out: Degradation of BRD4: DC50 (uM) c-Myc ELISA in 22RV1 cells
Method in brief: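 22RV-1 cells treated 18 h with 8-point 1:3 compound dilutions (final top 300 nM or 1 μM, 0.1% DMSO). Cells lysed in RIPA buffer with protease/phosphatase inhibitors, and c-myc protein in cleared lysate quantified by ELISA against a standard curve. DC50 reported for c-myc suppression.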

| Structure (SMILES) | Emax [%] | DC50 [µM] |
| --- | --- | --- |
| Cc1ncsc1-c1ccc(CNC(=O)[C@@H]2C[C@@H](O)CN2C(=O)[C@H](c2cnn(CCCOCCNC(=O)C[C@@H]3N=C(c4ccc(Cl)cc4)c4c(sc(C)c4C)-n4c(C)nnc43)c2)C(C)C)cc1 [Example 145] | 15.9 | > 1 |
| Cc1ncoc1-c1ccc([C@H](C)NC(=O)[C@@H]2C[C@@H](O)CN2C(=O)[C@@H](C(C)C)n2cc(-c3ccnc(O[C@H]4C[C@@H](NC(=O)C[C@@H]5N=C(c6ccc(Cl)cc6)c6c(sc(C)c6C)-n6c(C)nnc65)C4)c3)cn2)cc1 [Example 276] | 36 | > 1 |
| Cc1ncsc1-c1ccc([C@H](C)NC(=O)[C@@H]2C[C@@H](O)CN2C(=O)[C@@H](NC(=O)c2cc3ccc(O[C@H]4C[C@H](NC(=O)C[C@@H]5N=C(c6ccc(Cl)cc6)c6c(sc(C)c6C)-n6c(C)nnc65)C4)cc3o2)C(C)(C)C)cc1 [Example 229] | 100 | < 0.01 |
| Cc1ncsc1-c1ccc(CNC(=O)[C@@H]2C[C@@H](O)CN2C(=O)[C@@H](NC(=O)COCCCOCCCOc2ccc(NC(=O)C[C@@H]3N=C(c4ccc(Cl)cc4)c4c(sc(C)c4C)-n4cnnc43)cc2)C(C)(C)C)cc1 [Example 53] | 56 | > 1 |
| Cc1ncsc1-c1ccc(CNC(=O)[C@@H]2C[C@@H](O)CN2C(=O)[C@@H](NC(=O)COCCn2ccc(-c3ccc([C@@H](C)NC(=O)C[C@@H]4N=C(c5ccc(Cl)cc5)c5c(sc(C)c5C)-n5c(C)nnc54)cc3)cc2=O)C(C)(C)C)cc1 [Example 35] | 37 | > 1 |
| Cc1ncsc1-c1ccc([C@H](C)NC(=O)[C@@H]2C[C@@H](O)CN2C(=O)[C@H](C(C)C)n2cc(-c3ccnc(N4CC[C@@H](NC(=O)C[C@@H]5N=C(c6ccc(Cl)cc6)c6c(sc(C)c6C)-n6c(C)nnc65)C4)c3)cn2)cc1 [Example 266] | 97 | < 0.01 |
| Cc1ncsc1-c1ccc(CNC(=O)[C@@H]2C[C@@H](O)CN2C(=O)[C@@H](NC(=O)COCCCOc2ccc(-c3cnc(NC(=O)C[C@@H]4N=C(c5ccc(Cl)cc5)c5c(sc(C)c5C)-n5c(C)nnc54)cn3)cc2F)C(C)(C)C)cc1 [Example 22] | 94 | 0.01 to 0.1 |
| Cc1ncsc1-c1ccc(CNC(=O)[C@@H]2C[C@@H](O)CN2C(=O)[C@@H](C(C)C)n2cc(-c3cccc(O[C@@H](C)CNC(=O)C[C@@H]4N=C(c5ccc(Cl)cc5)c5c(sc(C)c5C)-n5c(C)nnc54)c3)cn2)cc1 [Example 198] | 16 | > 1 |
| Cc1ncsc1-c1ccc([C@H](C)NC(=O)[C@@H]2C[C@@H](O)CN2C(=O)[C@@H](NC(=O)CN2C[C@@H](C)N(C3CC4(C3)CN(C(=O)C[C@@H]3N=C(c5ccc(Cl)cc5)c5c(sc(C)c5C)-n5c(C)nnc53)C4)C[C@@H]2C)C(C)(C)C)cc1 [Example 357, (2S,4R)-1-[(2S)-2-{2-[(2S,5R)-4-(2-{2-[(9S)-7-(4-chlorophenyl)-4,5,13-trimethyl-3-thia-1,8,11,12-tetraazatricyclo[8.3.0.0^2,^6]trideca-2(6),4,7,10,12-pentaen-9-yl]acetyl}-2-azaspiro[3.3]heptan-6-yl)-2,5-dimethylpiperazin-1-yl]acetamido}-3,3-dimethylbutanoyl}-4-hydroxy-N-[(1S)-1-[4-(4-methyl-1,3-thiazol-5-yl)phenyl]ethyl]pyrrolidine-2-carboxamide] | 100 | 0.01 to 0.1 |
| Cc1ncsc1-c1ccc(CNC(=O)[C@@H]2C[C@@H](O)CN2C(=O)[C@@H](C(C)C)n2cc(-c3cccc(OCCNC(=O)C[C@@H]4N=C(c5ccc(Cl)cc5)c5c(sc(C)c5C)-n5c(C)nnc54)c3)cn2)cc1 [Example 162] | 7.62 | > 1 |
| Cc1ncsc1-c1ccc([C@H](C)NC(=O)[C@@H]2C[C@@H](O)CN2C(=O)[C@H](C(C)C)n2cc(-c3cccc(O[C@H]4C[C@@H](NC(=O)C[C@@H]5N=C(c6ccc(Cl)cc6)c6c(sc(C)c6C)-n6c(C)nnc65)C4)c3)cn2)cc1 [Example 243] | 95.5 | < 0.01 |
| Cc1ncsc1-c1ccc([C@H](C)NC(=O)[C@@H]2C[C@@H](O)CN2C(=O)[C@@H](C(C)C)n2cc(-c3cccc(O[C@H]4C[C@@H](NC(=O)C[C@@H]5N=C(c6ccc(Cl)cc6)c6c(sc(C)c6C)-n6c(C)nnc65)C4)c3)cn2)cc1 [Example 241] | 49.8 | > 1 |
| Cc1ncsc1-c1ccc(CNC(=O)C2C[C@@H](O)CN2C(=O)[C@@H](NC(=O)COc2ccccc2OCCCNC(=O)C[C@@H]2N=C(c3ccc(Cl)cc3)c3c(sc(C)c3C)-n3c(C)nnc32)C(C)(C)C)cc1 (stereo partly shown) [Example 107] | 86.6 | 0.01 to 0.1 |
| Cc1sc2c(c1C)C(c1ccc(Cl)cc1)=N[C@@H](CC(=O)N[C@H]1C[C@@H](Oc3ccc4oc(C(=O)N[C@H](C(=O)N5C[C@H](O)C[C@H]5C(=O)N[C@@H](C)c5ccc(-c6nccn6C)cc5)C(C)(C)C)cc4c3)C1)c1nnc(C)n1-2 [Example 262] | 55.5 | 0.1 to 1 |
| Cc1ncsc1-c1ccc(CNC(=O)[C@@H]2C[C@@H](O)CN2C(=O)[C@@H](NC(=O)COCCOCCOCCOc2ccc3c(c2)c2c(C(N)=O)cc(-c4c(C)noc4C)cc2n3Cc2ccccc2)C(C)(C)C)cc1 [Example 83] | 98 | 0.01 to 0.1 |
| Cc1ncsc1-c1ccc([C@H](C)NC(=O)[C@@H]2C[C@@H](O)CN2C(=O)[C@@H](NC(=O)CO[C@H]2C[C@H](OCCNC(=O)C[C@@H]3N=C(c4ccc(Cl)cc4)c4c(sc(C)c4C)-n4c(C)nnc43)C2)C(C)(C)C)cc1 [Example 256] | 89.5 | < 0.01 |
| Cc1sc2c(c1C)C(c1ccc(Cl)cc1)=N[C@@H](CC(=O)N[C@H]1C[C@H](OC3CCN(CC(=O)N[C@H](C(=O)N4C[C@H](O)C[C@H]4C(=O)N[C@@H](C)c4ccc(-c5scnc5CO)cc4)C(C)(C)C)CC3)C1)c1nnc(C)n1-2 [Example 346] | 90 | 0.01 to 0.1 |
| Cc1sc2c(c1C)C(c1ccc(Cl)cc1)=N[C@@H](CC(=O)N[C@H]1C[C@H](Oc3ccc(CC(=O)N[C@H](C(=O)N4C[C@H](O)C[C@H]4C(=O)N[C@@H](C)c4ccc(-n5ccnc5C)cc4)C(C)(C)C)cc3)C1)c1nnc(C)n1-2 [Example 272] | 95.9 | 0.01 to 0.1 |
| Cc1ncsc1-c1ccc([C@H](C)NC(=O)[C@@H]2C[C@@H](O)CN2C(=O)[C@@H](C(C)C)n2cc(-c3cc(F)cc(OCCNC(=O)C[C@@H]4N=C(c5ccc(Cl)cc5)c5c(sc(C)c5C)-n5c(C)nnc54)c3)cn2)cc1 [Example 223] | 79 | 0.1 to 1 |
| Cc1ncsc1-c1ccc([C@H](C)NC(=O)[C@@H]2C[C@@H](O)CN2C(=O)[C@@H](NC(=O)CCc2ccc(O[C@H]3C[C@@H](NC(=O)C[C@@H]4N=C(c5ccc(Cl)cc5)c5c(sc(C)c5C)-n5c(C)nnc54)C3)nc2)C(C)(C)C)cc1 [Example 171] | 97 | < 0.01 |
| Cc1ncsc1-c1ccc(CNC(=O)[C@@H]2C[C@@H](O)CN2C(=O)[C@@H](NC(=O)COCCCOc2ccc([C@@H](C)NC(=O)C[C@@H]3N=C(c4ccc(Cl)cc4)c4c(sc(C)c4C)-n4c(C)nnc43)cc2)C(C)(C)C)cc1 [Example 65] | 95.4 | 0.01 to 0.1 |
| Cc1ncsc1-c1ccc([C@H](C)NC(=O)[C@@H]2C[C@@H](O)CN2C(=O)[C@@H](C(C)C)n2cc(-c3ccnc(N4CC[C@@H](NC(=O)C[C@@H]5N=C(c6ccc(Cl)cc6)c6c(sc(C)c6C)-n6c(C)nnc65)C4)c3)cn2)cc1 [Example 267] | 51.4 | > 1 |
| Cc1ncsc1-c1ccc([C@H](C)NC(=O)[C@@H]2C[C@@H](O)CN2C(=O)[C@@H](NC(=O)COCCOCCCOc2ccc([C@H](C)NC(=O)C[C@H]3N=C(c4ccc(Cl)cc4)c4c(sc(C)c4C)-n4c(C)nnc43)cc2)C(C)(C)C)cc1 [Example 109] | < 5 | > 1 |
| Cc1ncsc1-c1ccc(CNC(=O)[C@@H]2C[C@@H](O)CN2C(=O)[C@H](C(C)C)n2cc(-c3ccnc(O[C@H]4C[C@H](NC(=O)C[C@@H]5N=C(c6ccc(Cl)cc6)c6c(sc(C)c6C)-n6c(C)nnc65)C4)c3)cn2)cc1 [Example 226] | 99 | 0.01 to 0.1 |
| Cc1ncoc1-c1ccc([C@H](C)NC(=O)[C@@H]2C[C@@H](O)CN2C(=O)[C@@H](C(C)C)n2cc(-c3cccc(O[C@H]4C[C@@H](NC(=O)C[C@@H]5N=C(c6ccc(Cl)cc6)c6c(sc(C)c6C)-n6c(C)nnc65)C4)c3)cn2)cc1 [Example 285] | 44.4 | > 1 |
| Cc1ncsc1-c1ccc(CNC(=O)[C@@H]2C[C@@H](O)CN2C(=O)[C@@H](NC(=O)COCCCOCCCCOc2ccc3c(c2)c2c(C(N)=O)cc(-c4c(C)noc4C)cc2n3Cc2ccccc2)C(C)(C)C)cc1 [Example 117, 9-benzyl-2-(dimethyl-1,2-oxazol-4-yl)-6-{4-[3-({[(2S)-1-[(2S,4R)-4-hydroxy-2-({[4-(4-methyl-1,3-thiazol-5-yl)phenyl]methyl}carbamoyl)pyrrolidin-1-yl]-3,3-dimethyl-1-oxobutan-2-yl]carbamoyl}methoxy)propoxy]butoxy}-9H-carbazole-4-carboxamide] | 100 | < 0.01 |
| Cc1ncsc1-c1ccc(CNC(=O)[C@@H]2C[C@@H](O)CN2C(=O)[C@@H](NC(=O)COCCCOCCCOc2ccc(NC(=O)C[C@@H]3N=C(c4ccc(Cl)cc4)c4c(sc(C)c4C)-n4c(C)nnc43)nc2)C(C)(C)C)cc1 [Example 28] | 100 | 0.01 to 0.1 |
| Cc1ncsc1-c1ccc([C@H](C)NC(=O)[C@@H]2C[C@@H](OC(=O)[C@@H](N)C(C)C)CN2C(=O)[C@@H](NC(=O)c2cc3cc(O[C@H]4C[C@@H](NC(=O)C[C@@H]5N=C(c6ccc(Cl)cc6)c6c(sc(C)c6C)-n6c(C)nnc65)C4)ccc3o2)C(C)(C)C)cc1 [Example 338] | 100 | < 0.01 |
| Cc1ncsc1-c1ccc(CNC(=O)[C@@H]2C[C@@H](O)CN2C(=O)[C@@H](NC(=O)COCCOCCOCCOCCNC(=O)C[C@@H]2N=C(c3ccc(Cl)cc3)c3c(sc(C)c3C)-n3c(C)nnc32)C(C)(C)C)cc1 [Example 38] | 94 | 0.01 to 0.1 |
